We go through one substance from US11167039B2, “MET antibody drug conjugates” (priority 2016, dated 2021).

One assay concerns Aspc-1. Kind of assay: Cell killing, Aspc-1. The following applies: Aspc-1, PANC Ca. The arrangement: key: Sensitive; Resistant. It counts as cell-based, human. As to the method:
(§1) Briefly described, 2-3×10^3 cells/well in 100 μL of culture medium may be plated in 96 well plates and incubated overnight at 37° C., 5% CO2. The MET-ADCs, MET antibody(ies), control MMAE or control hIgG4 conjugated to MMAE with cysteine conjugation antibody(ies) may be diluted 1:3 in serum-free culture medium starting from 100 nM (final) in 50 μL as 3× concentrations to the HT-29 cells. At the end of an additional 5-6 days of cell growth at 37° C. in a humidified incubator with 5% CO2, the plates may be equilibrated to room temperature for 30 minutes and 100 μL/well of CellTiter-Glo® reagent (Promega Corp., Fitchburg, Wis.) may then be added to assess cell viability. Cell viability may be determined by measuring luminescence.
(§2) Various tumor cell lines and normal human cells may be tested for MET-ADC induced cell killing activity essentially as described above in Example 10 as assessed for MET receptor density. MET cell surface density was determined by indirect immunofluorescence staining of cell surface antigens on cultured cells using QIFIKIT (Dako). […] Following a forty-five minute incubation, cells may be incubated for 1 hour on ice with FITC conjugated antibody diluted 1:50 in FACS buffer. Then cells may be washed and receptor numbers may be determined by indirect immunofluorescence staining of the QIFIKIT beads using a Becton Dickinson LSRII flow cytometer.

The next assay relates to KP-4. Kind of assay: Cell killing, KP-4. It counts as cell-based, human. On the set-up: key: Sensitive; Resistant. The following applies: KP-4, PANC Ca. On the procedure: as §1, §2
For a further assay, the system named is SW 1990. Kind of assay: Cell killing, SW 1990. In kind it is cell-based, human. On the set-up: key: Sensitive; Resistant. The following applies: SW 1990, PANC Ca. On the procedure:
as §1, §2

A further assay deals with MiaPaca-2. Kind of assay: Cell killing, MiaPaca-2. The following applies: MiaPaca-2, PANC Ca. It counts as cell-based, human. The arrangement: key: Sensitive; Resistant. On the procedure:
as §1, §2

Another assay deals with RKO. Kind of assay: RKO cell-killing assay. In kind it is cell-based, human. The following applies: RKO (BRAF, PIK3) colon cancer cells. On the procedure:
as §1, §2

For another assay, the system named is LS411N. Kind of assay: Cell killing, LS411N. It counts as cell-based, human. On the set-up: key to Sensitive/ Resistant: Sensitive; Resistant. As to the method:
as §1, §2

The test system of the next assay is Caco-2. Kind of assay: Cell killing, Caco-2. In kind it is cell-based, human. The arrangement: key: Sensitive; Resistant. The following applies: Caco-2, Colorectal Ca. As to the method: as §1, §2
Another assay concerns SNU-5. Kind of assay: Cell killing, SNU-5. On the set-up: key: Sensitive; Resistant. The note with it: SNU-5, Gastric Ca. It counts as cell-based, human. On the procedure: as §1, §2
The next assay relates to H1993. Kind of assay: Cell killing, H1993. In kind it is cell-based, human. The arrangement: key: Sensitive; Resistant. The note with it: H1993, NSCLC. As to the method: as §1, §2
The subject of another assay is H441. Kind of assay: Cell killing, H441. It counts as cell-based, human. The arrangement: key: Sensitive; Resistant. The following applies: H441, NSCLC. On the procedure:
as §1, §2

Another assay relates to T47D. Kind of assay: Cell killing, T47D. On the set-up: key: Sensitive; Resistant. The note with it: Breast Ca. It counts as cell-based, human. As to the method:
as §1, §2

The subject of another assay is OV79. Kind of assay: Cell killing, OV79. It counts as cell-based, human. On the set-up: key: Sensitive; Resistant. The following applies: OV79, Ovarian Ca. On the procedure:
as §1, §2

Another assay relates to HuAEC. Kind of assay: Cell killing, non-tumor HuAEC. It counts as cell-based, human. On the set-up: key: Sensitive; Resistant. The note with it: aortic endothelia cell. As to the method: as §1, §2
The next assay deals with RPTEC. Kind of assay: Cell killing, non-tumor RPTEC. In kind it is cell-based, human. The arrangement: key: Sensitive; Resistant. The following applies: renal proximal tubul cell. On the procedure: as §1, §2
For another assay, the system named is humen fresh naïve PBMC. Kind of assay: Cell killing, fresh naïve PBMC. It counts as cell-based, human. The arrangement: key: Sensitive; Resistant. The note with it: 3 donors. As to the method:
as §1, §2

The test system of assay [1] is humen fresh activated PBMC. Kind of assay: Cell killing, fresh activated PBMC. The note with it: 3 donors. It counts as cell-based, human. On the set-up: key: Sensitive; Resistant. As to the method: as §1, §2
The test system of another assay is Calu-6 xenograft. Kind of assay: Calu-6 non-small-cell-lung cancer xenograft model. It counts as in vivo, mouse. On the procedure: Female athymic nude mice age 6- to 7-weeks old are available commercially, including from Harlan Laboratories (Indianapolis, Ind.). The mice are allowed to acclimate for one week and fed ad libitum on a normal low fat (4.5%) diet, which may be continued for the duration of the study. Tumor cells may be purchased from ATCC and may be cultured in cell culture media such as RPMI 1640 (Life Technologies) with L-glutamine, 25 mM HEPES supplemented with 10% FBS and 1 mM Na Pyruvate. Cells may be detached, washed with serum free medium and then resuspended at a final concentration of 50×10^6 cells/mL in serum free RPMI 1640. Tumor cells, approximately 5×10^6, may be injected subcutaneously in the rear flank of subject mice in a 1:1 mixture of serum free growth medium and Matrigel (Becton Dickinson, Bedford, Mass.). Tumor and body weight measurements may be performed twice weekly. Prior to treatment, mice can be randomized based on tumor size using a randomization algorithm. Treatments may be started when the average tumor volume reaches 100 mm^3. […]
MET-ADCs and control hIgG4-MMAE may be prepared in Phosphate Buffered Saline (PBS) prior to dose. Tumor size may be determined by caliper measurements. […] Log volume data can be analyzed with two-way repeated measures ANOVA by time and treatment using SAS PROC MIXED software (SAS Institutes Inc, Cary, N.C.). […]

Assay [2] concerns pancreatic cancer PDX tumors. Kind of assay: Pancreatic cancer patient-derived xenograft (PDX) models. In kind it is in vivo, mouse. The following applies: 5 mg/kg weekly, four doses. The source says:
(§3) Body weight can also be assessed regularly.
Pancreatic tumors are known in the art to overexpress MET and have more than 90% KRAS mutations (Yabar, C. S. and Winter, J. M., Gastroenterol Clin N Am 45: 429-445 (2016)). Pancreatic tumor samples from 40 human pancreatic cancer patients were individually implanted into different immunocompromised mice (i.e., each mouse carried one tumor derived from a patient's […] tumor) essentially as described above in this Example 12.
In general terms: Xenograft models place foreign cells or tissue in a host animal.

In assay [3] the test system is colorectal cancer PDX tumors. Kind of assay: Colorectal cancer PDX models. In kind it is in vivo, mouse. The note with it: 1 or 3 mg/kg weekly, four doses.
Text: as §3
Colorectal tumor samples from 37 human colorectal cancer patients were individually implanted into different immunocompromised mice (i.e., each mouse carried one tumor derived from a patient's […] tumor) essentially as described above in this Example 13.

Entries after “also recorded” stand apart in the source; their conditions may differ.

On to “MET-ADC#1: emibetuzumab lysine-conjugated via (2,5-dioxopyrrolidin-1-yl) 2-azidoacetate and Octyne-β-Glucn-MMAE”, for which the “Sensitive/ Resistant” value in the assay with Aspc-1 is given as “S”; in the assay with KP-4, “S”; in the assay on SW 1990, “R”; in the assay on MiaPaca-2, “R”; in the assay on LS411N (LS411N, Colorectal Ca), “S”; in the assay on Caco-2, “R”. Besides, the “Sensitive/ Resistant” value in the assay on SNU-5 was “S”; in the assay with H1993, “S”; with H441 it was “S”; with T47D, “R”; with OV79, “S”; with HuAEC, “R”. Also, the “Sensitive/ Resistant” value (in the assay on RPTEC; in the assay with humen fresh naïve PBMC; in assay [1]) was “R” each time. Also, the “cell killing activity in RKO cells” value with RKO is “killed; also recorded: highly potent in killing RKO cells”. Also, in the assay on LS411N (LS411N (BRAF, PIK3) colon cancer cells), the “cell killing activity in LS411N cells” value is recorded as “killed”. The antitumor efficacy result in the assay on Calu-6 xenograft is “initial tumor regression and stable disease status”. Also, in [2], the “DCR: disease control rate (CR+PR+SD over total 40)” value was 60%. For the same substance, the “PD: progressive disease (% Delta T/C>10%), number of PDX” value in assay [2] (total 40) stood at 16. Further, in [2] (total 40), the “PR: partial response (% Regression<=−50% and tumor volume>14 mm^3), number of PDX” value was 9. In assay [2] (vs control hIgG4-ADC), the “effect on volume of pancreatic cancer PDX tumors” value is “profoundly reduced the volume of the pancreatic cancer PDX tumors”. Moreover, the “Complete Response (CR)” value in [3] (37 PDX) is listed as 5.4%. In addition, the “activity in colorectal cancer PDX models” value in assay [3] (vs control hIgG4-ADC) is “little activity”.
